Results taken from PubChem BioAssay AID1259407 (Chemical Carcinogenesis Research Information System (CCRIS), 2018).
Calls of active or inactive are those of the source. How the calls were made is not given here.

Test system: CCRIS mutagenicity, Ames/micronucleus/aberration tests
Assay: CCRIS mutagenicity studies
[1] = Test System: AMES SALMONELLA TYPHIMURIUM, Strain/Indicator: TA98, Metabolic Activation: NONE, Method: PREINCUBATION
[2] = Test System: AMES SALMONELLA TYPHIMURIUM, Strain/Indicator: TA98, Metabolic Activation: NONE, Method: STANDARD PLATE
[3] = Test System: AMES SALMONELLA TYPHIMURIUM, Strain/Indicator: TA98, Metabolic Activation: RAT, LIVER, S-9, AROCLOR 1254, Method: STANDARD PLATE
[4] = Test System: AMES SALMONELLA TYPHIMURIUM, Strain/Indicator: TA100, Metabolic Activation: NONE, Method: STANDARD PLATE
[5] = Test System: AMES SALMONELLA TYPHIMURIUM, Strain/Indicator: TA100, Metabolic Activation: RAT, LIVER, S-9, AROCLOR 1254, Method: STANDARD PLATE

SMILES: O=C(Cl)c1ccc(Cl)cc1
- mutagenic call [1]: inactive; negative
- mutagenic call (Test System: AMES SALMONELLA TYPHIMURIUM, Strain/Indicator: TA98, Metabolic Activation: RAT LIVER S-9, PHENOBARBITAL AND BETA-NAPHTHOFLAVONE, Method: PREINCUBATION): inactive; negative
- mutagenic call (Test System: AMES SALMONELLA TYPHIMURIUM, Strain/Indicator: TA100, Metabolic Activation: NONE, Method: PREINCUBATION): inactive; negative
- mutagenic call (Test System: AMES SALMONELLA TYPHIMURIUM, Strain/Indicator: TA100, Metabolic Activation: RAT LIVER S-9, PHENOBARBITAL AND BETA-NAPHTHOFLAVONE, Method: PREINCUBATION): inactive; negative
- mutagenic call (Test System: AMES SALMONELLA TYPHIMURIUM, Strain/Indicator: TA102, Metabolic Activation: NONE, Method: PREINCUBATION): inactive; negative
- mutagenic call (Test System: AMES SALMONELLA TYPHIMURIUM, Strain/Indicator: TA102, Metabolic Activation: RAT LIVER S-9, PHENOBARBITAL AND BETA-NAPHTHOFLAVONE, Method: PREINCUBATION): inactive; negative
- mutagenic call (Test System: AMES SALMONELLA TYPHIMURIUM, Strain/Indicator: TA104, Metabolic Activation: NONE, Method: PREINCUBATION): inactive; negative
- mutagenic call (Test System: AMES SALMONELLA TYPHIMURIUM, Strain/Indicator: TA104, Metabolic Activation: RAT LIVER S-9, PHENOBARBITAL AND BETA-NAPHTHOFLAVONE, Method: PREINCUBATION): inactive; negative
- mutagenic call (Test System: AMES SALMONELLA TYPHIMURIUM, Strain/Indicator: TA1535, Metabolic Activation: NONE, Method: PREINCUBATION): inactive; negative
- mutagenic call (Test System: AMES SALMONELLA TYPHIMURIUM, Strain/Indicator: TA1535, Metabolic Activation: RAT LIVER S-9, PHENOBARBITAL AND BETA-NAPHTHOFLAVONE, Method: PREINCUBATION): inactive; negative
- mutagenic call (Test System: AMES SALMONELLA TYPHIMURIUM, Strain/Indicator: TA1537, Metabolic Activation: NONE, Method: PREINCUBATION): inactive; negative
- mutagenic call (Test System: AMES SALMONELLA TYPHIMURIUM, Strain/Indicator: TA1537, Metabolic Activation: RAT LIVER S-9, PHENOBARBITAL AND BETA-NAPHTHOFLAVONE, Method: PREINCUBATION): inactive; negative
- mutagenic call (Test System: E.COLI, Strain/Indicator: WP2UVRA/PKM101, Metabolic Activation: NONE, Method: PREINCUBATION): inactive; negative
- mutagenic call (Test System: E.COLI, Strain/Indicator: WP2UVRA/PKM101, Metabolic Activation: RAT LIVER S-9, PHENOBARBITAL AND BETA-NAPHTHOFLAVONE, Method: PREINCUBATION): inactive; negative
- mutagenic call (Test System: E.COLI, Strain/Indicator: WP2UVRA, Metabolic Activation: NONE, Method: PREINCUBATION): inactive; negative
- mutagenic call (Test System: E.COLI, Strain/Indicator: WP2UVRA, Metabolic Activation: RAT LIVER S-9, PHENOBARBITAL AND BETA-NAPHTHOFLAVONE, Method: PREINCUBATION): inactive; negative

SMILES: NC(=O)CCC(=O)Nc1ccc(Cl)cc1
- mutagenic call [2]: inactive; negative
- mutagenic call [3]: inactive; negative
- mutagenic call [4]: inactive; negative
- mutagenic call [5]: inactive; negative

SMILES: CC(C)COS(=O)(=O)c1ccccc1
- mutagenic call [2]: active; positive
- mutagenic call (Test System: AMES SALMONELLA TYPHIMURIUM, Strain/Indicator: TA98, Metabolic Activation: RAT, LIVER, S-9, Method: STANDARD PLATE): active; positive
- mutagenic call (Test System: AMES SALMONELLA TYPHIMURIUM, Strain/Indicator: TA100, Metabolic Activation: RAT, LIVER, S-9, Method: STANDARD PLATE): active; positive

SMILES: Nc1cc([N+](=O)[O-])ccc1O
- mutagenic call (End Point: IN VITRO CHROMOSOMAL ABERRATIONS, Test System: CHO CELLS, Metabolic Activation: NONE): active; positive; precipitation occurred at all concentrations
- mutagenic call (End Point: IN VITRO CHROMOSOMAL ABERRATIONS, Test System: CHO CELLS, Metabolic Activation: RAT, LIVER, S-9, AROCLOR 1254): active; positive; precipitation occurred at both concentrations
- mutagenic call (Test System: AMES SALMONELLA TYPHIMURIUM, Strain/Indicator: TA98, Metabolic Activation: HAMSTER, LIVER, S-9, AROCLOR 1254 (10%), Method: PREINCUBATION): active; positive
- mutagenic call (Test System: AMES SALMONELLA TYPHIMURIUM, Strain/Indicator: TA98, Metabolic Activation: HAMSTER, LIVER, S-9, AROCLOR 1254, Method: PREINCUBATION): active; positive
- mutagenic call [1]: inactive; negative
- mutagenic call (Test System: AMES SALMONELLA TYPHIMURIUM, Strain/Indicator: TA98, Metabolic Activation: RAT, LIVER, S-9, AROCLOR 1254 (10%), Method: PREINCUBATION): inactive; negative
- mutagenic call (Test System: AMES SALMONELLA TYPHIMURIUM, Strain/Indicator: TA98, Metabolic Activation: RAT, LIVER, S-9, AROCLOR 1254, Method: PREINCUBATION): inactive; negative
- mutagenic call (Test System: AMES SALMONELLA TYPHIMURIUM, Strain/Indicator: TA100, Metabolic Activation: RAT, LIVER, S-9, AROCLOR 1254 (10%), Method: PREINCUBATION): inactive; negative
- mutagenic call (Test System: AMES SALMONELLA TYPHIMURIUM, Strain/Indicator: TA100, Metabolic Activation: RAT, LIVER, S-9, AROCLOR 1254, Method: PREINCUBATION): inactive; negative
- mutagenic call (Test System: AMES SALMONELLA TYPHIMURIUM, Strain/Indicator: TA1535, Metabolic Activation: HAMSTER, LIVER, S-9, AROCLOR 1254 (10%), Method: PREINCUBATION): inactive; negative
- mutagenic call (Test System: AMES SALMONELLA TYPHIMURIUM, Strain/Indicator: TA1535, Metabolic Activation: HAMSTER, LIVER, S-9, AROCLOR 1254, Method: PREINCUBATION): inactive; negative
- mutagenic call (Test System: AMES SALMONELLA TYPHIMURIUM, Strain/Indicator: TA1535, Metabolic Activation: RAT, LIVER, S-9, AROCLOR 1254 (10%), Method: PREINCUBATION): inactive; negative
- mutagenic call (Test System: AMES SALMONELLA TYPHIMURIUM, Strain/Indicator: TA1535, Metabolic Activation: RAT, LIVER, S-9, AROCLOR 1254, Method: PREINCUBATION): inactive; negative
- mutagenic call (Test System: AMES SALMONELLA TYPHIMURIUM, Strain/Indicator: TA1537, Metabolic Activation: HAMSTER, LIVER, S-9, AROCLOR 1254 (10%), Method: PREINCUBATION): inactive; negative
- mutagenic call (Test System: AMES SALMONELLA TYPHIMURIUM, Strain/Indicator: TA1537, Metabolic Activation: HAMSTER, LIVER, S-9, AROCLOR 1254, Method: PREINCUBATION): inactive; negative
- mutagenic call (Test System: AMES SALMONELLA TYPHIMURIUM, Strain/Indicator: TA1537, Metabolic Activation: RAT, LIVER, S-9, AROCLOR 1254 (10%), Method: PREINCUBATION): inactive; negative
- mutagenic call (Test System: AMES SALMONELLA TYPHIMURIUM, Strain/Indicator: TA1537, Metabolic Activation: RAT, LIVER, S-9, AROCLOR 1254, Method: PREINCUBATION): inactive; negative
- mutagenic call (Test System: MOUSE LYMPHOMA, Strain/Indicator: L5178Y (TK+/TK-), Metabolic Activation: NONE, Method: SUSPENSION/PLATE): active; positive

SMILES: [CH3][Sn]([CH3])([CH3])[CH3]
- mutagenic call (Test System: AMES SALMONELLA TYPHIMURIUM, Strain/Indicator: TA98, Metabolic Activation: NONE, Method: SUSPENSION/PLATE): inactive; negative
- mutagenic call (Test System: AMES SALMONELLA TYPHIMURIUM, Strain/Indicator: TA100, Metabolic Activation: NONE, Method: SUSPENSION/PLATE): inactive; negative

SMILES: Cc1occc(=O)c1[O-].Cc1occc(=O)c1[O-].Cc1occc(=O)c1[O-].[Cr+3]
- mutagenic call (Test System: AMES SALMONELLA TYPHIMURIUM, Strain/Indicator: TA92, Metabolic Activation: NONE, Method: STANDARD PLATE): inactive; negative
- mutagenic call [2]: inactive; negative
- mutagenic call [4]: inactive; negative
- mutagenic call (Test System: AMES SALMONELLA TYPHIMURIUM, Strain/Indicator: TA104, Metabolic Activation: NONE, Method: STANDARD PLATE): inactive; negative

SMILES: CNC(=O)Nc1ccccc1
- mutagenic call [2]: inactive; negative
- mutagenic call [3]: inactive; negative
- mutagenic call [4]: inactive; negative
- mutagenic call [5]: inactive; negative
- mutagenic call (Test System: AMES SALMONELLA TYPHIMURIUM, Strain/Indicator: TA1535, Metabolic Activation: NONE, Method: STANDARD PLATE): inactive; negative
- mutagenic call (Test System: AMES SALMONELLA TYPHIMURIUM, Strain/Indicator: TA1535, Metabolic Activation: RAT, LIVER, S-9, AROCLOR 1254, Method: STANDARD PLATE): inactive; negative
- mutagenic call (Test System: AMES SALMONELLA TYPHIMURIUM, Strain/Indicator: TA1537, Metabolic Activation: NONE, Method: STANDARD PLATE): inactive; negative
- mutagenic call (Test System: AMES SALMONELLA TYPHIMURIUM, Strain/Indicator: TA1537, Metabolic Activation: RAT, LIVER, S-9, AROCLOR 1254, Method: STANDARD PLATE): inactive; negative
- mutagenic call (Test System: AMES SALMONELLA TYPHIMURIUM, Strain/Indicator: TA1538, Metabolic Activation: NONE, Method: STANDARD PLATE): inactive; negative
- mutagenic call (Test System: AMES SALMONELLA TYPHIMURIUM, Strain/Indicator: TA1538, Metabolic Activation: RAT, LIVER, S-9, AROCLOR 1254, Method: STANDARD PLATE): inactive; negative
